Legend:
[1] = test system: background 2-thioacetyl MAGE hydrolyzing activity in membrane proteomes; experiment: Background 2-thioacetyl MAGE hydrolyzing activity in membrane proteomes; type: biochemical; conditions: FIG. 14
Experimental: KIAA1363-transfected cell lines were used for substrate-based enzyme activity assays. Membrane proteomes were adjusted to 0.5 mg/ml in 50 mM tris pH 7.4 buffer containing 5 mM CHAPS detergent. Immediately prior to the assay, 5,5′-dithiobis-(2-nitrobenzoic acid) (DTNB, Sigma) was added at 0.5 mM to the membrane proteome to prepare the Assay Buffer. For analysis of inhibitors, 1 ul of a 50× inhibitor solution in DMSO was added to 48 ul of Assay Buffer and preincubated for 20 min at RT. The substrate 2-thioacetyl MAGE (Cayman Chemical) was prepared by evaporating off the original solvent under nitrogen and redissolving the residue in DMSO. 1 ul of 5 mM 2-thioacetyl MAGE stock is added to each assay well to begin the assay. Absorbance is determined at A405 nm.
The background 2-thioacetyl MAGE hydrolyzing activity in membrane proteomes that is not inhibited by AS-115 is inhibited by the broad serine protease inhibitor PMSF (FIG. 14). The IC50 of AS-115 was measured using the 2-thioacetyl MAGE substrate-based assay with Flag-KIAA1363/293T cell membrane proteome (FIG. 15).

SKOV-3 cells = experiment: Targeted LC-MS analysis of lipid levels in inhibitor-treated cells; type: cell-based, human; conditions: compared to DMSO controls
Experimental: (§1) The following LC-MS conditions were used for analysis of cancer cell metabolomes. Cell pellets were harvested by scraping, isolated by centrifugation at 1,400×g, and dounce-homogenized in 4 mL of a 2:1:1 mixture of chloroform:methanol:Tris buffer (50 mM Tris*HCl, pH 8.0). Samples that were analyzed by targeted LC-MS were homogenized in the presence of the following synthetic standards: C15:0 MAG (50 pmol), C17:0 LPA (50 pmol), and 13C-C16:0 MAGE (25 pmol). Organic and aqueous layers were separated by centrifugation at 1,260×g for 5 min. The organic layer was then removed, dried under a stream of N2, and re-solubilized in 100 μL of chloroform, of which 30 μL was analyzed by LC-MS. Extraction of LPA was performed by acidifying the remaining aqueous layer to a final concentration of 5% formic acid, followed by the addition of 2 mL of chloroform. The mixture was vortexed, the organic layer removed, concentrated to dryness, and dissolved in 100 μL of chloroform, of which 30 μL was analyzed by LC-MS.
(§2) LC-MS analysis was performed using an Agilent 1100 LC-MSD SL instrument. […] Mobile phase A was composed of a 95:5 ratio of water:methanol and mobile phase B consisted of 2-propanol, methanol, and water in a 60:35:5 ratio. Solvent modifiers such as 0.1% formic acid and 0.1% ammonium hydroxide were used to assist ion formation as well as improve the LC resolution in both positive and negative ionization modes respectively. The flow rate for each run started at 0.1 mL/min for 5 min, to alleviate backpressure associated with injecting chloroform. The gradient started at 0% B and increased linearly to 100% B over the course of 40 min with a flow rate of 0.4 mL/min, followed by an isocratic gradient of 100% B for 7 min before equilibrating for 8 min at 0% B with a flow rate of 0.5 mL/min.
MS analysis was performed with an electrospray ionization (ESI) source. The capillary voltage was set to 3.0 kV and the fragmentor voltage to 100V. The drying gas temperature was 350° C., the drying gas flow rate was 10 L/min, and the nebulizer pressure was 35 psi. Untargeted data was collected using a mass range of 200-1000 Da and exported as common data format (.CDF) files for computational analysis. Differentially expressed metabolites between sample pairs were identified using the XCMS analyte profiling software (http://metlin/download) that aligns mass peaks from two LC-MS traces and quantifies the relative intensities of global metabolites (5). Significant inhibitor-sensitive peak changes were confirmed by manual quantification using the area under the peak normalized to total ion current. Targeted LC-MS measurements were made using selected ion monitoring (SIM). Peaks were quantified by measuring the area under the peak and normalized to an internal standard (C15:0 MAG) or endogenous lipid (palmitic acid). Absolute MAGE levels were estimated by comparison to a 13C-MAGE standard.
Human ovarian cancer cell lines were obtained form the National Cancer Institute's Developmental Therapeutics Program. The melanoma lines C8161 and MUM-2B were obtained form Mary Hendrix. Cells were maintained in RPMI medium 1640 with 10% (v/v) fetal calf serum at 37° C. in a humidified atmosphere of 5% CO2/95% air. At approximately 80% confluency, cells were trypsinized, counted with the aid of a hemocytometer, and 2.5×10^6 cells were plated in 6 cm dishes. 20 h after plating cells were washed twice with PBS and supplemented with serum free RPMI containing 0.5% BSA (Sigma)(BSA-RPMI) with AS115 (0.01-10 μM) or vehicle (DMSO) at 0.1%. After incubation for 4 h the cells were harvested and analyzed by ABPP or LC-MS.
By extension, the m/z 345 and 347 metabolites were interpreted to represent the C18:1 and C18:0 MAGEs, respectively. […] MAGE levels were measured by targeted LC-MS analysis of SKOV-3 cells treated with AS115 (5 μM) or DMSO for 4 h using a 13C-C16:0 MAGE internal standard. Values are represented as pmol/10^6 cells. […]

C8161 melanoma cells = experiment: LC-MS MAGE lipid levels in inhibitor-treated melanoma cells; type: cell-based, human; conditions: compared to DMSO controls
Experimental: as §1, §2
(§3) MS analysis was performed with an electrospray ionization (ESI) source. […] Differentially expressed metabolites between sample pairs were identified using the XCMS analyte profiling software (http://metlin/download) that aligns mass peaks from two LC-MS traces and quantifies the relative intensities of global metabolites (5). Significant inhibitor-sensitive peak changes were confirmed by manual quantification using the area under the peak normalized to total ion current. […] Peaks were quantified by measuring the area under the peak and normalized to an internal standard (C15:0 MAG) or endogenous lipid (palmitic acid). […]
(§4) Human ovarian cancer cell lines were obtained form the National Cancer Institute's Developmental Therapeutics Program. […] At approximately 80% confluency, cells were trypsinized, counted with the aid of a hemocytometer, and 2.5×10^6 cells were plated in 6 cm dishes. […] After incubation for 4 h the cells were harvested and analyzed by ABPP or LC-MS. […]

MUM-2B melanoma cells = experiment: as above; type: cell-based, human; conditions: compared to DMSO controls
Experimental: as §1, §2, §3, §4

shKIAA1363 cells = experiment: Cell migration assay (Transwell) with shKIAA1363 cells; type: cell-based, human; conditions: concentrations up to 1 μM, 18 h
Experimental: Migration assays were performed in Transwell chambers with […] pore-sized membranes coated with 10 μg/ml collagen overnight at 4° C. (Corning). Twenty-four hours before the start of the migration assay, cancer cell lines were plated at concentration of 2.25×10^6 cells per 10 cm dish. At the start of the migration assay, cells were harvested by washing two times with PBS and then serum starved in medium containing 0.05% BSA for 4 hours. Serum starved cells were trypsinized, spun at 1400 rpm for 3 minutes, resuspended, and counted. Cells were diluted to a density of 100,000 cells/ml in medium contain 0.05% BSA, and then 250 μl were placed in the upper chamber of the transwells. Either DMSO, alkyl LPA (10 nM), alkyl LPC (10-1000 nM), or MAGE (10-1000 nM) in medium containing 0.05% BSA was added in the lower chamber, and cells were allowed to migrate for 18 h. The filters were then fixed and stained with Diff-Quik (Dade Behring). Cells that had not migrated through the chamber were removed with a cotton ball. The cells which migrated were counted at a magnification of 40× and from each migration chamber 6 fields were independently counted.
The decrease in tumorigenic potential of shKIAA1363 cells was not associated with a change in proliferation potential in vitro (FIG. 11). shKIAA1363 cells were, however, impaired in their in vitro migration capacity compared to control cells (FIG. 9B). […]

Molecule: O=S(=O)(F)Cc1ccccc1 [PMSF, reference compound]
- Background 2-thioacetyl MAGE hydrolyzing activity [1]: inhibited

Molecule: NC(=O)c1cccc(-c2cccc(OC(=O)NC3CCCCC3)c2)c1 [URB597, reference compound]
- Levels of MAGE lipids (SKOV-3 cells): did not affect
- Levels of MAGE lipids (C8161 melanoma cells): did not affect
- Levels of MAGE lipids (MUM-2B melanoma cells): did not affect

Molecule: monoalkylglycerol ether [MAGE]
- Effect on cancer cell migration (shKIAA1363 cells): Neither MAGE nor alkyl-LPC impacted cancer cell migration

Reference: patent US8940497B2, “Enzyme regulating ether lipid signaling pathways” (The Scripps Research Institute, priority 2006, dated 2015)
